This is an account of results in patent US4477458A, “Thiazolidine derivatives and their mucolytic compositions and methods” (Camillo Corvi S.p.A., priority 1981, dated 1984).

Test [1] relates to mucus production of rabbit. Put plainly: Activity on mucus production of rabbit (method of R. Scuri and Coll.). The test is classed as in vivo. To be noted: for Mucoproduction at hours 0 - 4: mean ± E.S.; for change in vivo at 400 mg/kg / change in vivo at 600 mg/kg: po.
A further test deals with gastric mucin of the pig. Put plainly: "in vitro" viscosity of gastric mucin of the pig (Contraves Rehomat microviscosimeter). To be noted: conc. 2 %; for Viscosity of gastric mucin: 0.1 ml; for Viscosity of gastric mucin, Var. %: vs Mucin + H2O. The protocol: The pharmacological activity was measured by studying the effect on the compound (CO/1177) on: (c) "in vitro" viscosity of gastric mucin of the pig by using, for the viscometer measures, a Contraves Rehomat microviscosimeter at 15 automatic scanning speeds.

Setting [2] is: Oryctolagus cuniculus, iv, 10 mg/kg i.v., 0-4 h vs -4-0 h, read-out: Mucoproduction Var. %.
[3] abbreviates: Oryctolagus cuniculus, 400 mg/kg os, 0-4 h vs -4-0 h, read-out: Mucoproduction Var. %.
[4] abbreviates: Oryctolagus cuniculus, 600 mg/kg os, 0-4 h vs -4-0 h, read-out: Mucoproduction Var. %.

Structures can show the parent of a compound that is named as a salt.

Turning to `CC(S)C(=O)NCC(=O)O` (racemic) [Mercaptopropionylglycine], the “Mucoproduction at hours 0 - 4” value in test [1] (10 mg/kg i.v.) is 32.121 ± 1.013 mg/h; in test [1] (20 mg/kg i.v.) it was 36.630 ± 1.565 mg/h; in test [1] (400 mg/kg os), 32.053 ± 1.292 mg/h; in test [1] (600 mg/kg os), 34.432 ± 1.813 mg/h. The change in vivo at 10 mg/kg in test [1] (setting [2]) was 33.8%. For the same molecule, in test [1] (Oryctolagus cuniculus, iv, 20 mg/kg i.v., 0-4 h vs -4-0 h, read-out: Mucoproduction Var. %), the change in vivo at 20 mg/kg was determined as 43%. Further, the change in vivo at 400 mg/kg in test [1] (setting [3]) came out at 45%. Besides, the change in vivo at 600 mg/kg in test [1] (setting [4]) came out at 49.9%.
As to `CN(Cc1cc(Br)cc(Br)c1N)C1CCCCC1` [Bromexine], the “Mucoproduction at hours 0 - 4” value in test [1] (400 mg/kg os) is reported as 27.414 ± 1.071 mg/h; in test [1] (600 mg/kg os), 34.440 ± 1.446 mg/h. Further, in test [1] (setting [3]), the change in vivo at 400 mg/kg amounted to 31.3%. Moreover, the change in vivo at 600 mg/kg in test [1] (setting [4]) came out at 40.6%.
As for `CC1=CCC(CC2SCCN2C(=O)c2ccccc2C(=O)[O-])C1(C)C.[Na+]` (centres unmarked) [CO/1178, 2-[(2-{2',2',3'-trimethyl-cyclopenten-3'yl}-methyl)-1,3-thiazolidin-3-yl]-carbonyl-benzoic acid, Na salt], the “Mucoproduction Var. %” value in test [1] (10 mg/kg i.v., 0-4 h vs -4-0 h) is “+19.9%”. For the same molecule, the “Mucoproduction at hours 0 - 4” value in test [1] (10 mg/kg i.v.) is 26.890 ± 6.210 mg/h.
`O=C(O)c1ccccc1C(=O)N1CCSC1c1ccccc1` (centres unmarked) [CO/1220, 2-[(2-phenyl)-1,3-thiazolidin-3-yl]-carbonyl-benzoic acid (Na salt)]: the “Mucoproduction at hours 0 - 4” value in test [1] (10 mg/kg i.v.) is listed as 31.300 ± 2.240 mg/h. The change in vivo at 10 mg/kg in test [1] (setting [2]) is 43.5%.
Take `CCCC1SCCN1C(=O)c1ccccc1C(=O)O` (centres unmarked) [CO/1226, 2-[(2-propyl)-1,3-thiazolidin-3-yl]-carbonyl-benzoic acid (Na salt)]: the “Mucoproduction at hours 0 - 4” value in test [1] (10 mg/kg i.v.) is reported as 29.730 ± 4.510 mg/h. Further, in test [1] (setting [2]), the change in vivo at 10 mg/kg was found to be 26.9%.
For the molecule `O=C(O)c1cccnc1C(=O)N1CCSC1` [CO/1242, 2-(1,3-thiazolidin-3-yl)-carbonyl-3-pyridine-carboxylic acid (Na salt)], in test [1] (10 mg/kg i.v.), the “Mucoproduction at hours 0 - 4” value was determined as 31.030 ± 2.840 mg/h. In addition, the change in vivo at 10 mg/kg in test [1] (setting [2]) is 39%.
For `CC(=O)N[C@@H](CS)C(=O)O` [N--Acetylcysteine, reference compound], the “Mucoproduction at hours 0 - 4” value came out at 29.058 ± 0.946 mg/h in test [1] (5 mg/kg i.v.), 30.988 ± 1.078 mg/h in test [1] (10 mg/kg i.v.), 22.713 ± 0.947 mg/h in test [1] (400 mg/kg os) and 32.512 ± 1.365 mg/h in test [1] (600 mg/kg os). In test [1] (Oryctolagus cuniculus, iv, 5 mg/kg i.v., 0-4 h vs -4-0 h, read-out: Mucoproduction Var. %), the change in vivo at 5 mg/kg worked out at 29.2%. Also, the change in vivo at 10 mg/kg in test [1] (setting [2]) came out at 49.8%. For the same molecule, the change in vivo at 400 mg/kg in test [1] (setting [3]) amounted to 4.7%. In addition, in test [1] (setting [4]), the change in vivo at 600 mg/kg was 39.4%. Besides, the “Viscosity of gastric mucin” value in the test with gastric mucin of the pig (speed 17.4 g/min) turned out to be 25.64 cps; with gastric mucin of the pig (speed 25 g/min), 25.20 cps; in the test on gastric mucin of the pig (speed 33.6 g/min), 24.30 cps; in the test on gastric mucin of the pig (speed 44.3 g/min), 23.32 cps; in the test on gastric mucin of the pig (speed 56.1 g/min), 23.77 cps; in the test with gastric mucin of the pig (speed 77.9 g/min), 20.30 cps. In addition, the “Viscosity of gastric mucin” value in the test with gastric mucin of the pig (speed 113.2 g/min) amounted to 19.41 cps; in the test with gastric mucin of the pig (speed 152 g/min), 17.94 cps; in the test with gastric mucin of the pig (speed 200 g/min), 16.19 cps; in the test on gastric mucin of the pig (speed 266.8 g/min), 14.52 cps; in the test on gastric mucin of the pig (speed 352 g/min), 13.70 cps. For the same molecule, the “Viscosity of gastric mucin, Var. %” value in the test with gastric mucin of the pig (speed 17.4 g/min) was -11.9%; with gastric mucin of the pig (speed 25 g/min), -8.1%; in the test with gastric mucin of the pig (speed 44.3 g/min), -12.4%; in the test on gastric mucin of the pig (speed 56.1 g/min), -8.1%; in the test with gastric mucin of the pig (speed 77.9 g/min) it was -11.1%; in the test with gastric mucin of the pig (speed 113.2 g/min), -10.1%. Besides, the “Viscosity of gastric mucin, Var. %” value is -8% in the test with gastric mucin of the pig (speed 152 g/min), -11.1% in the test with gastric mucin of the pig (speed 200 g/min), -12.1% in the test on gastric mucin of the pig (speed 266.8 g/min) and -8.1% with gastric mucin of the pig (speed 352 g/min).
In the case of `N[C@@H](CSCC(=O)O)C(=O)O` [S--Carboxymethylcysteine], the entries for the “Mucoproduction at hours 0 - 4” value in test [1] (400 mg/kg os) and in test [1] (600 mg/kg os) were 35.339 ± 1.376 mg/h and 32.120 ± 1.630 mg/h, respectively. For the same molecule, the change in vivo at 400 mg/kg in test [1] (setting [3]) was 31.2%. Also, the change in vivo at 600 mg/kg in test [1] (setting [4]) was determined as 34.2%.
